Data published in patent US9695155B2, “Herbicidal substituted pyrimidinyloxy benzene compounds” (E. I. DU PONT DE NEMOURS AND COMPANY, priority 2013, dated 2017).

What was measured:
[1] = system: velvetleaf; assay: Test C postemergence; format: in vivo, Abutilon theophrasti; details: for Velvetleaf plant response rating: 31 g ai/ha
Summary of the method: (§1)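 Visual injury score versus untreated controls, 0 = no effect, 100 = complete control, taken 13 to 15 days after treatment in the greenhouse. Pre-emergence pots held loam/sand; post-emergence plants grew in sphagnum peat/vermiculite mix and were sprayed at the 1- to 4-leaf stage.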

[2] = system: wheat, winter; assay: Test C postemergence; format: in vivo, Triticum aestivum; details: for Wheat plant response rating: 31 g ai/ha
Summary of the method: as §1

[3] = system: pigweed; assay: Test A preemergence; format: in vivo, Amaranthus retroflexus; details: for Pigweed plant response rating (0 to 100 scale): 125 g ai/ha
Summary of the method: (§2)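 Injury scores run from 0, no effect, to 100, complete control, judged by eye against untreated plants roughly 10 days after treatment. Chemicals carried a surfactant in a non-phytotoxic solvent and went onto loam–sand soil preemergence or onto one- to two-leaf seedlings postemergence.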

[4] = system: wild oat; assay: Test C postemergence; format: in vivo, Avena fatua; details: for Oat, Wild plant response rating: 31 g ai/ha
Summary of the method: as §1

[5] = system: pigweed; assay: Test A postemergence; format: in vivo, Amaranthus retroflexus; details: 0 to 100 scale, 0 no effect, 100 complete control
Summary of the method: as §2

[6] = system: chickweed; assay: Test C postemergence; format: in vivo, Stellaria media
Summary of the method: as §1

[7] = system: giant foxtail; assay: Test A postemergence; format: in vivo, Setaria faberii; details: 0 to 100 scale, 0 no effect, 100 complete control
Summary of the method: as §2

[8] = system: giant foxtail; assay: Test C postemergence; format: in vivo, Setaria faberii
Summary of the method: as §1

[9] = system: giant foxtail; assay: Test A preemergence; format: in vivo, Setaria faberii; details: for Foxtail, Giant plant response rating (0 to 100 scale): 125 g ai/ha
Summary of the method: as §2

[10] = system: ragweed; assay: Test C postemergence; format: in vivo, Ambrosia elatior; details: for Ragweed plant response rating: 31 g ai/ha
Summary of the method: as §1

[11] = system: soybean; assay: Test C postemergence; format: in vivo, Glycine max; details: for Soybean plant response rating: 31 g ai/ha
Summary of the method: as §1

[12] = postemergence, visual rating, scale 0 to 100 (0 no effect, 100 complete control), 13 to 15 days
[13] = 16 g ai/ha, postemergence, 0 is no effect, 100 is complete control
[14] = 125 g ai/ha, postemergence, visual rating, scale 0 to 100 (0 no effect, 100 complete control)
[15] = Postemergence, 62 g ai/ha, scale 0 to 100 (0 no effect, 100 complete control), 13 to 15 days
[16] = 31 g ai/ha, 0 to 100 scale where 0 is no effect and 100 is complete control, visual, approximately 10 days
[17] = 31 g ai/ha, postemergence, visual rating, scale 0 to 100 (0 no effect, 100 complete control), 13 to 15 days

## N#Cc1cccc(Oc2ncc(Cl)cn2)c1-n1cc(C(F)F)cn1 [Compound 253, 3-(5-chloropyrimidin-2-yl)oxy-2-[4-(difluoromethyl)-1H-pyrazol-1-yl]benzonitrile]
[1]; [12]
  Velvetleaf plant response rating: 70
[1]; Abutilon theophrasti, post-emergence, 16 g ai/ha, postemergence, 0 is no effect, 100 is complete control, read-out: Plant response rating (0 to 100), Velvetleaf
  pest or weed control at 16 g/ha: 30%
[1]; Abutilon theophrasti, post-emergence, 125 g ai/ha, postemergence, visual rating, scale 0 to 100 (0 no effect, 100 complete control), read-out: Plant response rating, Velvetleaf
  pest or weed control at 125 g/ha: 85%
[1]; Abutilon theophrasti, post-emergence, Postemergence, 62 g ai/ha, scale 0 to 100 (0 no effect, 100 complete control), 13 to 15 days, read-out: Plant response rating, Velvetleaf
  pest or weed control at 62 g/ha: 70%
[2]; [12]
  Wheat plant response rating: 0
[2]; Triticum aestivum, post-emergence, 16 g ai/ha, postemergence, 0 is no effect, 100 is complete control, read-out: Plant response rating (0 to 100), Wheat
  plant injury at 16 g/ha: 0%
[2]; Triticum aestivum, post-emergence, 125 g ai/ha, postemergence, visual rating, scale 0 to 100 (0 no effect, 100 complete control), read-out: Plant response rating, Wheat
  plant injury at 125 g/ha: 0%
[2]; Triticum aestivum, post-emergence, Postemergence, 62 g ai/ha, scale 0 to 100 (0 no effect, 100 complete control), 13 to 15 days, read-out: Plant response rating, Wheat
  plant injury at 62 g/ha: 0%
[3]
  Pigweed plant response rating (0 to 100 scale): 100
[3]; Amaranthus retroflexus, pre-emergence, 240 h, 31 g ai/ha, 0 to 100 scale where 0 is no effect and 100 is complete control, visual, approximately 10 days, read-out: Plant response rating, Pigweed
  pest or weed control at 31 g/ha: 100%
[4]; [12]
  Oat, Wild plant response rating: 0
[4]; Avena fatua, post-emergence, 16 g ai/ha, postemergence, 0 is no effect, 100 is complete control, read-out: Plant response rating (0 to 100), Oat, Wild
  pest or weed control at 16 g/ha: 0%
[4]; Avena fatua, post-emergence, 125 g ai/ha, postemergence, visual rating, scale 0 to 100 (0 no effect, 100 complete control), read-out: Plant response rating, Oat, Wild
  pest or weed control at 125 g/ha: 10%
[4]; Avena fatua, post-emergence, Postemergence, 62 g ai/ha, scale 0 to 100 (0 no effect, 100 complete control), 13 to 15 days, read-out: Plant response rating, Oat, Wild
  pest or weed control at 62 g/ha: 10%
[5]; Amaranthus retroflexus, post-emergence, 31 g ai/ha, read-out: Plant response rating, Pigweed
  pest or weed control at 31 g/ha: 90%
[5]; Amaranthus retroflexus, post-emergence, 125 g ai/ha, read-out: Plant response rating, Pigweed
  pest or weed control at 125 g/ha: 100%
[6]; Stellaria media, post-emergence, 16 g ai/ha, postemergence, 0 is no effect, 100 is complete control, read-out: Plant response rating (0 to 100), Chickweed
  pest or weed control at 16 g/ha: 60%
[6]; Stellaria media, post-emergence, 31 g ai/ha, postemergence, visual rating, scale 0 to 100 (0 no effect, 100 complete control), 13 to 15 days, read-out: Chickweed plant response rating
  pest or weed control at 31 g/ha: 70%
[6]; Stellaria media, post-emergence, 125 g ai/ha, postemergence, visual rating, scale 0 to 100 (0 no effect, 100 complete control), read-out: Plant response rating, Chickweed
  pest or weed control at 125 g/ha: 90%
[6]; Stellaria media, post-emergence, Postemergence, 62 g ai/ha, scale 0 to 100 (0 no effect, 100 complete control), 13 to 15 days, read-out: Plant response rating, Chickweed
  pest or weed control at 62 g/ha: 90%
[7]; Setaria faberi, post-emergence, 240 h, 31 g ai/ha, read-out: Plant response rating, Foxtail, Giant
  pest or weed control at 31 g/ha: 20%
[7]; Setaria faberi, post-emergence, 240 h, 125 g ai/ha, read-out: Plant response rating, Foxtail, Giant
  pest or weed control at 125 g/ha: 100%
[8]; Setaria faberi, post-emergence, 16 g ai/ha, postemergence, 0 is no effect, 100 is complete control, read-out: Plant response rating (0 to 100), Foxtail, Giant
  pest or weed control at 16 g/ha: 10%
[8]; Setaria faberi, post-emergence, 31 g ai/ha, postemergence, visual rating, scale 0 to 100 (0 no effect, 100 complete control), 13 to 15 days, read-out: Foxtail, Giant plant response rating
  pest or weed control at 31 g/ha: 45%
[8]; Setaria faberi, post-emergence, 125 g ai/ha, postemergence, visual rating, scale 0 to 100 (0 no effect, 100 complete control), read-out: Plant response rating, Foxtail, Giant
  pest or weed control at 125 g/ha: 20%
[8]; Setaria faberi, post-emergence, Postemergence, 62 g ai/ha, scale 0 to 100 (0 no effect, 100 complete control), 13 to 15 days, read-out: Plant response rating, Foxtail, Giant
  pest or weed control at 62 g/ha: 25%
[9]
  Foxtail, Giant plant response rating (0 to 100 scale): 100
[9]; Setaria faberi, pre-emergence, 240 h, 31 g ai/ha, 0 to 100 scale where 0 is no effect and 100 is complete control, visual, approximately 10 days, read-out: Plant response rating, Foxtail, Giant
  pest or weed control at 31 g/ha: 70%
[10]; [12]
  Ragweed plant response rating: 45
[10]; Ambrosia artemisiifolia, post-emergence, 16 g ai/ha, postemergence, 0 is no effect, 100 is complete control, read-out: Plant response rating (0 to 100), Ragweed
  pest or weed control at 16 g/ha: 20%
[10]; Ambrosia artemisiifolia, post-emergence, 125 g ai/ha, postemergence, visual rating, scale 0 to 100 (0 no effect, 100 complete control), read-out: Plant response rating, Ragweed
  pest or weed control at 125 g/ha: 80%
[10]; Ambrosia artemisiifolia, post-emergence, Postemergence, 62 g ai/ha, scale 0 to 100 (0 no effect, 100 complete control), 13 to 15 days, read-out: Plant response rating, Ragweed
  pest or weed control at 62 g/ha: 55%
[11]; [12]
  Soybean plant response rating: 60
[11]; Glycine max, post-emergence, 16 g ai/ha, postemergence, 0 is no effect, 100 is complete control
  Soybean plant response rating (crop injury, 0-100 scale) at 16 g/ha: 40%
[11]; Glycine max, post-emergence, 125 g ai/ha, postemergence, visual rating, scale 0 to 100 (0 no effect, 100 complete control), read-out: Plant response rating, Soybean
  Soybean plant response rating (crop injury, 0-100 scale) at 125 g/ha: 90%
[11]; Glycine max, post-emergence, Postemergence, 62 g ai/ha, scale 0 to 100 (0 no effect, 100 complete control), 13 to 15 days
  Soybean plant response rating (crop injury, 0-100 scale) at 62 g/ha: 40%

## FC(F)Oc1cnn(-c2c(Cl)cccc2Oc2ncc(Cl)cn2)c1 [Compound 258]
[1]; [13]
  Plant response rating (0 to 100), Velvetleaf: 55
[1]; [12]
  Velvetleaf plant response rating: 65
[1]; [14]
  Plant response rating, Velvetleaf: 80
[1]; [15]
  Plant response rating, Velvetleaf: 75
[2]; [13]
  Plant response rating (0 to 100), Wheat: 0
[2]; [12]
  Wheat plant response rating: 0
[2]; [14]
  Plant response rating, Wheat: 5
[2]; [15]
  Plant response rating, Wheat: 5
[3]; [16]
  Plant response rating, Pigweed: 100
[3]
  Pigweed plant response rating (0 to 100 scale): 100
[4]; [13]
  Plant response rating (0 to 100), Oat, Wild: 5
[4]; [12]
  Oat, Wild plant response rating: 5
[4]; [14]
  Plant response rating, Oat, Wild: 15
[4]; [15]
  Plant response rating, Oat, Wild: 10
[5]; 31 g ai/ha
  Plant response rating, Pigweed: 80
[5]; 125 g ai/ha
  Plant response rating, Pigweed: 100
[6]; [13]
  Plant response rating (0 to 100), Chickweed: 50
[6]; [17]
  Chickweed plant response rating: 50
[6]; [14]
  Plant response rating, Chickweed: 95
[6]; [15]
  Plant response rating, Chickweed: 90
[7]; 31 g ai/ha
  Plant response rating, Foxtail, Giant: 20
[7]; 125 g ai/ha
  Plant response rating, Foxtail, Giant: 70
[8]; [13]
  Plant response rating (0 to 100), Foxtail, Giant: 5
[8]; [17]
  Foxtail, Giant plant response rating: 20
[8]; [14]
  Plant response rating, Foxtail, Giant: 45
[8]; [15]
  Plant response rating, Foxtail, Giant: 25
[9]; [16]
  Plant response rating, Foxtail, Giant: 60
[9]
  Foxtail, Giant plant response rating (0 to 100 scale): 100
[10]; [13]
  Plant response rating (0 to 100), Ragweed: 25
[10]; [12]
  Ragweed plant response rating: 50
[10]; [14]
  Plant response rating, Ragweed: 75
[10]; [15]
  Plant response rating, Ragweed: 50
[11]; [13]
  Plant response rating (0 to 100), Soybean: 50
[11]; [12]
  Soybean plant response rating: 75
[11]; [14]
  Plant response rating, Soybean: 95
[11]; [15]
  Plant response rating, Soybean: 70
